Test: n-Octanol/PBS partition coefficient
Type: physicochemical
Details: 1-n-octanol/PBS, pH 7; read-out: LogP (LogPow, 1-n-octanol/water partition coefficient)
Method: The normalized UV-vis spectra, as well as the fluorescence spectra in DMSO and ethanol, are shown in Figures S1 and S2 (Supplementary Information). Fluorescence quantum yields were measured as compared with 5,10,15,20-tetrakisphenylporphyrin (TPP) (ΦF = 0.11) and ZnTPP (ΦF = 0.033). For free-base compounds 3a,b fluorescence quantum yields were similar at ca. 0.13 in DMSO and ca. 0.14, respectively. Octanol-water distribution coefficients were calculated using 1-n-octanol and phosphate-buffered saline (PBS), according to the method described in [53]. […] As expected, compound 3a was more hydrophilic (LogPow = −4.86) than 3b (LogPow = −4.6). Such an effect can be associated with the increase in the number of methylene spacers in compound 3b.
The distribution coefficient was measured using 1-n-octanol and phosphate buffered saline (PBS), which were presaturated with each other by the described method. […] The absorption of each layer was measured spectrophotometrically in the region of the Soret band. Partition coefficients were calculated as the ratio between absorption in the Soret band of photosensitizers in organic and aqueous phase and the dilution factors for the organic and aqueous layers, according to the aforementioned method.

O=C(CC[n+]1ccccc1)Oc1ccc(-c2c3nc(c(-c4ccc(OC(=O)CC[n+]5ccccc5)cc4)c4ccc([nH]4)c(-c4ccc(OC(=O)CC[n+]5ccccc5)cc4)c4nc(c(-c5ccc(OC(=O)CC[n+]6ccccc6)cc5)c5ccc2[nH]5)C=C4)C=C3)cc1 [3a]
logP: -4.86
